Results from patent US20140113904A1, “TREATMENT OF CANCER WITH TOR KINASE INHIBITORS” (SIGNAL PHARMACEUTICALS, LLC, priority 2012, published 2014).
Like-named read-outs stand apart in the source and are kept apart here.

Assays:
PC3 cell line = assay: WST-1 cell proliferation assay (Compound 2); type: cell-based; details: Homo sapiens
Procedure: All growth inhibition experiments were repeated on different occasions at least twice. Potency was determined by calculating the IC50 value using the data describing the growth inhibition curve. A reference compound was included in each plate assay to monitor inter-assay variation and the IC50 value for the reference compound was used as part of the acceptance criteria for the assay. […] Next, compound was added to the designated well at a dilution of 1:10 (i.e., 20 μL of the diluted compound was added to 180 μL of culture media in each well). The final dilution of compound was 1:500, which yielded a final DMSO concentration of 0.2% in each well. All concentrations were performed in triplicate. Additionally, each plate tested contained cells treated with a reference compound in order to evaluate interassay variation and the IC50 value generated was used as criteria in accepting the test data. […] Cell proliferation was assessed using the WST-1 assay, which is based on measurement of metabolic activity via the reduction of tetrazolium salts to formazan salts. […] Absorbance was measured at 450 nm on the VICTOR™ X2 multilabel plate reader (PerkinElmer). […] The software (XLfit from IDBS) calculated the percentage inhibition at each concentration of compound by normalizing to the DMSO control values. […] Percentage inhibition curves were plotted and IC50 values calculated.

Akt(S473) = assay: Phospho-Akt(S473) in PC3 cell lysates, MSD; type: cell-based, human; details: PC3, 1 hour exposure; read-out: p-Akt (S473) IC50
Text: The direct substrate for TORC1 was 4E-BP 1(T46) and indirect downstream substrate was S6RP(S235/S236). The direct substrate for TORC2 was Akt(S473) and indirect downstream substrates measured were GSK3β(S9) and PRAS40(T246). Additionally, the phosphorylation status of Akt(T308), a phosphorylation site for PDK1 was monitored.
MSD® biomarker detection assays provide a rapid and convenient method for measuring the total and phosphorylated levels of protein targets within a single small volume sample. These assays are available in both single-plex and multiplex formats. In a single-plex assay, an antibody for a specific protein target is coated on one electrode (or spot) per well. […] MSD Read Buffer that provides the appropriate chemical environment for ECL is added and the plate is read using an MSD SECTOR™ Imager. […] The instrument measures intensity of the emitted light to afford a quantitative measure of the amount of phosphorylated Akt or S6RP present in the sample. […]
The assay plate was incubated with 150 μL of MSD Blocker A Solution for 1 hour with shaking at room temperature. […] Then 150 μL of 1×MSD Read Buffer T was added to each well. The plate was read on the SECTOR Imager plate reader. The Excel data was transferred to Activity Base and IC50 values were calculated.
All data was analyzed using XLfit from IDBS. […]

Row | IC50 (PC3 cell line; PC-3, 72 h, PC3 cell line, 3 days, average, read-out: growth inhibition IC50) [nM] | IC50 (PC3 cell line; PC-3, prostate tumor cells, read-out: growth inhibition IC50 values) [nM] | IC50 (Akt(S473)) [nM] | SMILES
1 | 140 | 140 to 1310 | – | CCN1C(=O)CNc2ncc(-c3ccc(-c4nc[nH]n4)nc3C)nc21 [Compound 2, 1-ethyl-7-(2-methyl-6-(1H-1,2,4-triazol-3-yl)pyridin-3-yl)-3,4-dihydropyrazino[2,3-b]pyrazin-2(1H)-one]
2 | – | – | 10 | CO[C@H]1CC[C@H](N2C(=O)CNc3ncc(-c4ccc(C(C)(C)O)nc4)nc32)CC1 [Compound 1, 7-(6-(2-hydroxypropan-2-yl)pyridin-3-yl)-1-((1r,4r)-4-methoxycyclohexyl)-3,4-dihydropyrazino-[2,3-b]pyrazin-2(1H)-one]
